Measured values reported in US20100009970A1, “COMPOSITIONS AND METHODS FOR TREATMENT OF VIRAL DISEASES” (Combinatorx (Singapore) Pte. Ltd., priority 2008, published 2010).
Where two headings read alike, the source gives them in different places.

Assays:
in vitro = conditions: human
[1] = system: Huh7 cells expressing a subgenomic RNA replicon of Con1 (genotype 1b) sequence origin; experiment: microbe, parasite or virus in culture; conditions: Hepatitis C virus
[2] = Huh-7, read-out: IC50 (uM) [SG]
[3] = Huh-7, read-out: Max Effect@CC30 (inhibition)
[4] = GETYPE1B, Huh-7, 72 h, read-out: Max Effect @CC30 (inhibition)

SMILES | CC50 (in vitro; CC50 (uM) [SG]) | IC90 ([1]; Huh-7) | IC50 [1, 2] | Emax [1, 3] | CC50 (in vitro; CC50 (uM)) | Emax [1, 4] | IC50 ([1]; Huh-7, 72 h) | IC50 ([1]; Huh-7)
CSc1ccc(N(C)c2ccc(Br)cc2CN(C)C)cc1C [Compound 98, 4-Bromo-2-((dimethylamino)methyl)-N-methyl-N-(3-methyl-4-(methylthio)phenyl)aniline] | > 50 µM | 26.8 µM | 25 µM | – | – | – | – | –
CN[C@H]1CC[C@@H](c2ccc(Cl)c(Cl)c2)c2ccc(NS(=O)(=O)c3cn(C)cn3)cc21 [N-((5S,8S)-5-(3,4-dichlorophenyl)-8-(methylamino)-5,6,7,8-tetrahydronaphthalen-2-yl)-1-methyl-1H-imidazole-4-sulfonamide] | 13.6 µM | – | 7.76 µM | 20.2% | – | – | – | –
CNC1CCC(c2ccc(OC)cc2)c2ccccc21 (stereo not shown) [Sertraline B-Ring Para-Methoxy, 4-(4-methoxyphenyl)-N-methyl-1,2,3,4-tetrahydronaphthalen-1-amine] | 51.1 µM | – | 26.8 µM | – | – | – | – | –
CN[C@H]1CC[C@@H](c2ccc(Cl)c(Cl)c2)c2ccc(C(=O)NC3CC3)cc21 [(5S,8S)—N-cyclopropyl-5-(3,4-dichlorophenyl)-8-(methylamino)-5,6,7,8-tetrahydronaphthalene-2-carboxamide] | 8.87 µM | – | 2.75 µM | 88% | – | – | – | –
CNCc1cc([N+](=O)[O-])ccc1Oc1ccc(SC)c(C)c1 [Compound 50, N-methyl-1-(2-(3-methyl-4-(methylthio)phenoxy)-5-nitrophenyl)methanamine] | 26.1 µM | 11.4 µM | 6.04 µM | 90% | – | – | – | –
CSc1ccc(Oc2ccc(S(N)(=O)=O)cc2CNCCCN(C)C)cc1C [Compound 79, 3-((3-(dimethylamino)propylamino)methyl)-4-(3-methyl-4-(methylthio)phenoxy)benzenesulfonamide] | 17.8 µM | 9.66 µM | 3.44 µM | – | – | – | – | –
CN[C@H]1CC[C@@H](c2ccc(Cl)c(Cl)c2)c2ccc(C(N)=O)cc21 [Sertraline A ring carboxamide, (5S,8S)-5-(3,4-dichlorophenyl)-8-(methylamino)-5,6,7,8-tetrahydronaphthalene-2-carboxamide] | 16.2 µM | – | 1.8 µM | – | – | – | – | –
CSc1ccc(Oc2ccc(S(N)(=O)=O)cc2CN2CCC[C@@H]2CO)cc1C [Compound 102, (R)-3-((2-(hydroxymethyl)pyrrolidin-1-yl)methyl)-4-(3-methyl-4-(methylthio)phenoxy)benzenesulfonamide] | > 50 µM | 17.6 µM | 6.76 µM | – | – | – | – | –
CN[C@H]1CC[C@@H](c2ccc(Cl)c(Cl)c2)c2ccc(C(N)=S)cc21 [Sertraline A-Ring Thiocarboxamide, (5S,8S)-5-(3,4-dichlorophenyl)-8-(methylamino)-5,6,7,8-tetrahydronaphthalene-2-carbothioamide] | 13.2 µM | – | 7.19 µM | – | – | – | – | –
CNCc1ccccc1Oc1ccc(SC)c(C)c1 [Compound 30, N-methyl-1-(2-(3-methyl-4-(methylthio)phenoxy)phenyl)methanamine] | 26.4 µM | – | 13.2 µM | 26% | – | – | – | –
CSc1ccc(Oc2ccc(S(N)(=O)=O)cc2N)cc1C [Compound 58, 3-amino-4-(3-methyl-4-(methylthio)phenoxy)benzenesulfonamide] | > 50 µM | – | 15.3 µM | – | – | – | – | –
CN[C@H]1CC[C@@H](c2ccc(Cl)c(Cl)c2)c2ccc(C(=O)Nc3ccccn3)cc21 [Sertraline A-ring Pyridine Carboxamide, (5S,8S)-5-(3,4-dichlorophenyl)-8-(methylamino)-N-(pyridin-2-yl)-5,6,7,8-tetrahydronaphthalene-2-carboxamide] | 7.05 µM | – | 4.43 µM | 61.3% | – | – | – | –
CC(C)C1=CC[C@@H](c2ccc(Cl)c(Cl)c2)c2ccc(C(N)=O)cc21 [(S)-5-(3,4-dichlorophenyl)-8-isopropyl-5,6-dihydronaphthalene-2-carboxamide] | > 50 µM | – | 21.5 µM | – | – | – | – | –
CN[C@H]1CC[C@@H](c2ccc(Cl)c(Cl)c2)c2ccc([N+](=O)[O-])cc21 [Nitro Sertraline, (1S,4S)-4-(3,4-dichlorophenyl)-N-methyl-7-nitro-1,2,3,4-tetrahydronaphthalen-1-amine] | 8.03 µM | – | 6.46 µM | 27% | 8.03 µM | 27% | 6.46 µM | –
CSc1ccc(Oc2ccc(N)cc2CN(C)C)cc1C [Compound 53, 3-((dimethylamino)methyl)-4-(3-methyl-4-(methylthio)phenoxy)aniline] | > 50 µM | 45.7 µM | 22.6 µM | 91.5% | – | – | – | –
CSc1ccc(Oc2ccc(S(N)(=O)=O)cc2CN2CC[C@H](O)C2)cc1C [Compound 66, (S)-3-((3-hydroxypyrrolidin-1-yl)methyl)-4-(3-methyl-4-(methylthio)phenoxy)benzenesulfonamide] | > 50 µM | 6.78 µM | 2.43 µM | – | – | – | – | –

SMILES | CC50 (in vitro; CC50 (uM) [SG]) | IC90 ([1]; Huh-7) | IC50 [1, 2] | Emax [1, 3] | CC50 (in vitro; CC50 (uM)) | Emax [1, 4] | IC50 ([1]; Huh-7, 72 h) | IC50 ([1]; Huh-7)
CSc1ccc(N2CN(C)Cc3cc(Br)ccc32)cc1C [Compound 78, 6-bromo-3-methyl-1-(3-methyl-4-(methylthio)phenyl)-1,2,3,4-tetrahydroquinazoline] | 24.9 µM | 15.5 µM | 13.7 µM | – | – | – | – | –
CN[C@H]1CC[C@@H](c2ccc(Cl)c(Cl)c2)c2ccc(N(C)C)cc21 [Sertraline A-Ring N,N-Dimethylamine, (1S,4S)-4-(3,4-dichlorophenyl)-N1,N7,N7-trimethyl-1,2,3,4-tetrahydronaphthalene-1,7-diamine] | 6.22 µM | 5.82 µM | 3.52 µM | 35.1% | 6.22 µM | – | – | 3.52 µM
CSc1ccc(Oc2ccc(S(N)(=O)=O)cc2CN2CCN(C(C)C)CC2)cc1C [Compound 106, 3-((4-isopropylpiperazin-1-yl)methyl)-4-(3-methyl-4-(methylthio)phenoxy)benzenesulfonamide] | 24.3 µM | 8.21 µM | 3.57 µM | – | – | – | – | –
CN[C@H]1CC[C@@H](c2ccc(Cl)c(Cl)c2)c2ccc(C(=O)NCC(=O)OC)cc21 [methyl 2-((1S,4S)-1-(3,4-dichlorophenyl)-4-(methylamino)-1,2,3,4-tetrahydronaphthalene-6-carboxamido)acetate] | 22.9 µM | – | 6.69 µM | – | – | – | – | –
CN[C@H]1CC[C@@H](c2ccc(Cl)c(Cl)c2)c2ccc(S(=O)(=O)NCCO)cc21 [Sertraline Sulfonamide Ethanol, (5S,8S)-5-(3,4-dichlorophenyl)-N-(2-hydroxyethyl)-8-(methylamino)-5,6,7,8-tetrahydronaphthalene-2-sulfonamide] | 13.8 µM | – | 8.13 µM | 80% | 13.8 µM | 80% | 8.13 µM | –
CN(C)[C@H]1CC[C@@H](c2ccc(Cl)c(Cl)c2)c2ccc(C(=O)NC3CCC3)cc21 [(5S,8S)—N-cyclobutyl-5-(3,4-dichlorophenyl)-8-(dimethylamino)-5,6,7,8-tetrahydronaphthalene-2-carboxamide] | 13.4 µM | – | 5.78 µM | – | – | – | – | –
CSc1ccc(Oc2ccc(S(N)(=O)=O)cc2CO)cc1C [Compound 47, 3-(hydroxymethyl)-4-(3-methyl-4-(methylthio)phenoxy)benzenesulfonamide] | > 50 µM | – | 18.1 µM | 63.5% | > 50 µM | – | – | 18.1 µM
CN(C(=O)c1ccc2c(c1)[C@@H](N(C)C)CC[C@H]2c1ccc(Cl)c(Cl)c1)C1CC1 [(5S,8S)—N-cyclopropyl-5-(3,4-dichlorophenyl)-8-(dimethylamino)-N-methyl-5,6,7,8-tetrahydronaphthalene-2-carboxamide] | 26.3 µM | – | 13 µM | – | – | – | – | –
CSc1ccc(Oc2ccc(S(N)(=O)=O)cc2CN(C)C[C@@H](C)O)cc1C [Compound 70, (R)-3-(((2-hydroxypropyl)(methyl)amino)methyl)-4-(3-methyl-4-(methylthio)phenoxy)benzenesulfonamide] | > 50 µM | 23.9 µM | 7.01 µM | – | – | – | – | –
CNC(=O)c1cc(S(N)(=O)=O)ccc1Oc1ccc(SC)c(C)c1 [Compound 45, N-methyl-2-(3-methyl-4-(methylthio)phenoxy)-5-sulfamoylbenzamide] | – | – | – | 10.3% | > 50 µM | – | – | –
CSc1ccc(Oc2ccc(S(N)(=O)=O)cc2CN2CCCC2)cc1C [Compound 101, 4-(3-methyl-4-(methylthio)phenoxy)-3-(pyrrolidin-1-ylmethyl)benzenesulfonamide] | 40.6 µM | 4.74 µM | 1.74 µM | – | – | – | – | –
CSc1ccc(Oc2ccc(S(N)(=O)=O)cc2CN2CCN(c3ccccc3)CC2)cc1C [Compound 93, 4-(3-methyl-4-(methylthio)phenoxy)-3-((4-phenylpiperazin-1-yl)methyl)benzenesulfonamide] | 43.1 µM | – | 20.2 µM | – | – | – | – | –
Cc1cc(Oc2ccc(S(N)(=O)=O)cc2CN(C)C)ccc1Br [Compound 61, 4-(4-bromo-3-methylphenoxy)-3-((dimethylamino)methyl)benzenesulfonamide] | > 50 µM | – | 12.1 µM | – | – | – | – | –
CNCc1cc(Br)ccc1Oc1cccc(OC)c1 [Compound 37, (5-bromo-2-(3-methoxyphenoxy)phenyl)-N-methylmethanamine] | 46.9 µM | – | 27.7 µM | 12.4% | – | – | – | –
CN[C@H]1CC[C@@H](c2ccc(Cl)c(Cl)c2)c2ccc(NC(=O)C3CCCC3)cc21 [N-((5S,8S)-5-(3,4-dichlorophenyl)-8-(methylamino)-5,6,7,8-tetrahydronaphthalen-2-yl)cyclopentanecarboxamide] | 7 µM | 5.89 µM | 4.02 µM | 22.9% | 7 µM | – | – | 4.02 µM
CN[C@H]1CC[C@@H](c2ccc(Cl)c(Cl)c2)c2ccc(CS(=O)(=O)c3ccccc3)cc21 [(1S,4S)-4-(3,4-dichlorophenyl)-N-methyl-7-(phenylsulfonylmethyl)-1,2,3,4-tetrahydronaphthalen-1-amine] | 6.7 µM | – | 6.24 µM | – | – | – | – | –
